Measurements taken from US11166942B2 (PRAXIS BIOTECH LLC, priority 2018, dated 2021).

Experiments:
HEK293T cells = experiment: Recovery of protein translation in stressed HEK293T cells; type: cell-based, human; details: up to 200-fold its IC50 value (FIG. 2)
Text: Despite the great potency on the inhibition of ATF4 expression, ISRIB is not able to completely restore protein synthesis when the global protein translation is decreased under these stress conditions. […] Compound 4 has a great potency for the inhibition of ATF4 expression under stress condition (FIG. 3) and is much better at restoring global protein translation under ER stress-mediated repression and going beyond a 100% recovery (FIG. 4).

[1] = system: hippocampal slices from transgenic APP/PS1 mice; experiment: Electrophysiology and long-term potentiation in hippocampal slices; details: slices from APP/PS1 mouse, 5 μM, 20 min before stimulation (FIGS. 5A, 5B)
Method: Hippocampal slices were prepared as described in Ardiles et al., Pannexin 1 regulates bidirectional hippocampal synaptic plasticity in adult mice. Front Cell Neurosci, vol. 8, art. 326 (2014). Six to nine-month-old WT C57BL/6 or transgenic APP/PS1 mice (Jackson Lab 34829-JAX) were deeply anesthetized with isoflurane and their brains were quickly removed. 5-10 slices (350 μm) from each animal were dissected in ice-cold dissection buffer using a vibratome (Leica VT1200S, Leica Microsystems, Nussloch, Germany). Slices were incubated with 5 μM ISRIB (trans-N,N′-1,4-cyclohexanediylbis[2-(4-chlorophenoxy)-acetamide) or a vehicle (complete medium containing 0.1% DMSO) 20 min before conditioning stimulation. Synaptic responses were evoked by stimulating the Schaffer collaterals with 0.2 ms pulses delivered through concentric bipolar stimulating electrodes, and recorded extracellularly in the stratum radiatum of the CA1 subfield. Long-term potentiation (LTP) was induced by four-theta burst stimulation (TBS) (10 trains of four pulses at 100 Hz; 5 Hz inter-burst interval) delivered at 0.1 Hz. LTP magnitude based on field excitatory postsynaptic potential (fEPSP) was calculated as the average (normalized to baseline) of the responses recorded 60 min after conditioning stimulation. Similar experiments can be performed using a test compound in place of ISRIB.

ATF4 = ATF4 expression inhibition assay (ATF4 5'UTR luciferase reporter, Tg-stressed HEK293T cells); type: cell-based, human; details: 100 nM thapsigargin, 3 hours, HEK293T ATF4 luciferase reporter; read-out: ATF4 inhbition IC50
Summary of the method: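 HEK293T stably expressing luciferase fused downstream of human full-length ATF4 5′UTR, stressed with 100 nM thapsigargin plus compound (100 nM or 1 μM; IC50 series 0.1 nM to 1 μM) for 3 h at 37° C. Luminescence normalized to Tg alone (0%) and untreated cells (100% inhibition).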

O=C(COc1ccc(Cl)cc1)N[C@H]1CC[C@H](NC(=O)COc2ccc(Cl)cc2)CC1 [ISRIB, reference compound]
restoration of protein translation in stressed cells (HEK293T cells): only partially restores protein translation
long-term potentiation (LTP, fEPSP slope) 60 min after theta burst stimulation [1]: partial LTP recovery
IC50 (ATF4): 5 nM
